Data taken from patent US6469010B1, “Medicament for the alleviation or treatment of symptom derived from the ischemic disease and compound useful thereof” (Suntory Limited, priority 1995, dated 2002).

Experiments:
Na+ channel = assay: Veratridine-induced sodium channel activity inhibiting action (membrane potential of synaptosomes, Rhodamine 6G); assay type: biochemical, Wistar rats; conditions: 0.1 μM of compound; rat brain synaptosomes, veratridine-induced depolarization
Method: Veratridine-induced Sodium Channel Activity Inhibiting Action
The membrane potential of the synaptosomes prepared from the brain membrane of Wistar rats (male, 10 to 12 weeks old) was measured by the method of Aiuchi et al. [T. Aiuchi et al: Biochimi. Biophys. Acta.

DBA/2N mice = assay: Audiogenic seizure suppressing action; assay type: in vivo; conditions: Mus musculus, ip, 20 min; compound 10 mg/kg, i.p.; audio stimulus after 20 minutes; suppression of average seizure score; read-out: Antiseizure action (suppression rate %)
Method: Audiogenic Seizure Suppressing Action
The audiogenic seizure suppressing action of the compounds was evaluated by the method of Sarro et al. [G. B. De Sarro et al.; Br. J. Pharmacol., 93, 247 (1988)]. That is, DBA/2N mice (male, 3 weeks) were administered with the compound dissolved in 10% 2-hydroxypropyl-β-cyclodextrin intraperitoneally. After 20 minutes, a supersonic washer was used to apply audio stimulus of at least 90 dB for one minute. The wild running (WR), clonic seizures (clonus), tonic seizures (tonus), and respiratory arrest (RA) were evaluated. The seizure suppressing action was evaluated from the rate or suppression of the average value of the seizure score found from 0=no response, 1=WR, 2=clonus, 3=tonus, and 4=RA.

Compound: C1=C(c2ccc(Oc3ccccc3)cc2)CCN(C/C=C/c2ccccc2)C1 [Compound 18, (E)-4-(4-phenoxyphenyl)-1-(3-phenyl-2-propenyl)-1,2,3,6-tetrahydropyridine]
- Antiveratridine action (inhibiting rate %) (Na+ channel): 16%
- inhibition in vivo at 10 mg/kg (DBA/2N mice): 27.9%

Compound: COc1cc(/C=C/CN2CCC(c3ccc(Oc4ccccc4)cc3)CC2)ccc1O [Compound 19, (E)-1-[3-(4-hydroxy-3-methoxyphenyl)-2-propenyl]-4-(4-phenoxyphenyl)piperidine]
- Antiveratridine action (inhibiting rate %) (Na+ channel): 26.1%
- inhibition in vivo at 10 mg/kg (DBA/2N mice): 53.6%

Compound: c1ccc(CCCN2CCC(c3ccc(Oc4ccccc4)cc3)CC2)cc1 [Compound 22, 4-(4-phenoxyphenyl)-1-(3-phenylpropyl)piperidine]
- inhibition in vivo at 10 mg/kg (DBA/2N mice): 85.7%

Compound: COc1cc(/C=C/CN2CC=C(c3ccc(Oc4ccccc4)cc3)CC2)ccc1O [Compound 24, (E)-1-[3-(4-hydroxy-3-methoxyphenyl)-2-propenyl]-4-(4-phenoxyphenyl)-1,2,3,6-tetrahydropyridine]
- inhibition in vivo at 10 mg/kg (DBA/2N mice): 49.1%

Compound: Fc1ccc(/C=C/CN2CCC(c3ccc(Oc4ccccc4)cc3)CC2)cc1 [Compound 25, (E)-1-[3-(4-fluorophenyl)-2-propenyl]-4-(4-phenoxyphenyl)piperidine]
- inhibition in vivo at 10 mg/kg (DBA/2N mice): 72%

Compound: Fc1ccc(OCCN2CCC(c3ccc(Oc4ccccc4)cc3)CC2)cc1 [Compound 27, 1-[2-(4-fluorophenyl)oxyethyl]-4-(4-phenoxyphenyl)piperidine]
- inhibition in vivo at 10 mg/kg (DBA/2N mice): 34%

Compound: Fc1ccc(OCCCCN2CCC(c3ccc(Oc4ccccc4)cc3)CC2)cc1 [Compound 28, 1-[4-(4-fluorophenyl)-oxybutyl]-4-(4-phenoxyphenyl)piperidine]
- Antiveratridine action (inhibiting rate %) (Na+ channel): 38%
- inhibition in vivo at 10 mg/kg (DBA/2N mice): 56.9%

Compound: COc1ccc(CN2CCC(c3ccc(Oc4ccccc4)cc3)CC2)c(OC)c1OC [Compound 29, 4-(4-phenoxyphenyl)-1-[(2,3,4-trimethoxyphenyl)methyl]piperidine]
- Antiveratridine action (inhibiting rate %) (Na+ channel): 9.9%
- inhibition in vivo at 10 mg/kg (DBA/2N mice): 66.2%

Compound: Fc1ccc(Cc2ccc(C3=CCN(C/C=C/c4ccccc4)CC3)cc2)cc1 [Compound 31, (E)-4-[4-(4-fluorophenyl)-methylphenyl]-1-(3-phenyl-2-propenyl)-1,2,3,6-tetrahydropyridine]
- inhibition in vivo at 10 mg/kg (DBA/2N mice): 48%

Compound: Fc1ccc(Cc2ccccc2C2=CCN(C/C=C/c3ccccc3)CC2)cc1 [Compound 34, (E)-4-[2-(4-fluorophenyl)methylphenyl]-1-(3-phenyl-2-propenyl)-1,2,3,6-tetrahydropyridine]
- inhibition in vivo at 10 mg/kg (DBA/2N mice): 34%

Compound: Fc1ccc(OCCCCN2CCN(c3ccc(Oc4ccccc4)cc3)CC2)cc1 [Compound 41, 4-[4-(4-fluorophenyl)-oxybutyl]-1-(4-phenoxyphenyl)piperazine]
- Antiveratridine action (inhibiting rate %) (Na+ channel): 20.8%
- inhibition in vivo at 10 mg/kg (DBA/2N mice): 42.7%

Compound: C(=C\c1ccccc1)/CN1CCN(c2ccccc2Oc2ccccc2)CC1 [Compound 42, (E)-1-(2-phenoxyphenyl)-4-(3-phenyl-2-propenyl)piperazine]
- inhibition in vivo at 10 mg/kg (DBA/2N mice): 60%

Compound: COc1ccc(CN2CCN(c3ccc(Oc4ccccc4)cc3)CC2)c(OC)c1OC [Compound 46, 1-(4-phenoxyphenyl)-4-[(2,3,4-trimethoxyphenyl)methyl]piperazine]
- Antiveratridine action (inhibiting rate %) (Na+ channel): 11.7%
- inhibition in vivo at 10 mg/kg (DBA/2N mice): 27.9%

Compound: COc1ccc(/C=C/CN2CCN(c3ccc(Cc4ccc(F)cc4)cc3)CC2)c(OC)c1OC [Compound 48, (E)-1-[4-(4-fluorophenyl)-methylphenyl]-1-[3-(2,3,4-trimethoxyphenyl)-2-propenyl]-piperazine]
- Antiveratridine action (inhibiting rate %) (Na+ channel): 20.5%
- inhibition in vivo at 10 mg/kg (DBA/2N mice): 53.6%

Compound: C(=C\c1ccccc1)/CN1CCN(c2ccccc2Cc2ccccc2)CC1 [Compound 51, (E)-1-(2-benzylphenyl)-4-(3-phenyl-2-propenyl)piperazine]
- inhibition in vivo at 10 mg/kg (DBA/2N mice): 71.4%

Compound: c1ccc(Cc2ccccc2N2CCN(CC3CC3c3ccccc3)CC2)cc1 (stereo not drawn) [Compound 52, (E)-1-(2-benzylphenyl)-4-[trans-(2-phenyl)cyclopropylmethyl]piperazine]
- inhibition in vivo at 10 mg/kg (DBA/2N mice): 20%

Compound: Fc1ccc(Cc2ccc(N3CCN(CC4CC4c4ccccc4)CC3)cc2)cc1 (stereo not drawn) [Compound 55, (E)-1-[4-(4-fluorophenyl)-methylphenyl]-4-[trans-(2-phenyl)cyclopropylmethyl]-piperazine]
- inhibition in vivo at 10 mg/kg (DBA/2N mice): 62%

Compound: COc1ccc(CN2CCN(c3ccc(Cc4ccc(F)cc4)cc3)CC2)c(OC)c1OC [Compound 56, 1-[4-(4-fluorophenyl)-methylphenyl]-4-[(2,3,4-trimethoxyphenyl)methyl]piperazine]
- inhibition in vivo at 10 mg/kg (DBA/2N mice): 50%

Compound: Fc1ccc(Cc2ccc(N3CCN(CCCCOc4ccc(F)cc4)CC3)cc2)cc1 [Compound 57, 4-[4-(4-fluorophenyl)-oxybutyl]-1-[4-(4-fluorophenyl)methylphenyl]pinerazine]
- Antiveratridine action (inhibiting rate %) (Na+ channel): 25%

Compound: O=C(CCCN1CCN(c2ccc(Cc3ccc(F)cc3)cc2)CC1)c1ccc(F)cc1 [Compound 58, 1-[4-(4-fluorophenyl)methylphenyl]-4-[4-((4-fluorophenyl)-4-oxo)butyl]-piperazine]
- Antiveratridine action (inhibiting rate %) (Na+ channel): 33.9%
- inhibition in vivo at 10 mg/kg (DBA/2N mice): 66%

Compound: Fc1ccc(Cc2ccc(C3CCN(CC4(c5ccccc5)CC4)CC3)cc2)cc1 [Compound 62, 4-[4-(4-fluorophenyl)-methylphenyl]-1-(1-phenyl-1-cyclopropane)methyl-piperidine]
- Antiveratridine action (inhibiting rate %) (Na+ channel): 23.9%
- inhibition in vivo at 10 mg/kg (DBA/2N mice): 44%

Compound: O=C(CN1CCC(c2ccc(Cc3ccc(F)cc3)cc2)CC1)c1ccccc1 [Compound 63, 4-[4-(4-fluorophenyl)methylphenyl]-1-(2-phenyl-2-oxo)ethylpiperidine]
- Antiveratridine action (inhibiting rate %) (Na+ channel): 31.1%
- inhibition in vivo at 10 mg/kg (DBA/2N mice): 76%

Compound: O=C(CN1CCC(c2ccc(Oc3ccccc3)cc2)CC1)c1ccccc1 [Compound 64, 4-(4-phenoxyphenyl)-1-(2-phenyl-2-oxo)ethylpiperidine]
- Antiveratridine action (inhibiting rate %) (Na+ channel): 34.5%
- inhibition in vivo at 10 mg/kg (DBA/2N mice): 94%

Compound: COc1ccc(C(=O)CN2CCC(c3ccc(Oc4ccccc4)cc3)CC2)cc1 [Compound 66, 1-[2-(4-methoxyphenyl)-2-oxo]ethyl-4-(4-phenoxyphenyl)piperidine]
- Antiveratridine action (inhibiting rate %) (Na+ channel): 19.6%
- inhibition in vivo at 10 mg/kg (DBA/2N mice): 39.2%

Compound: O=C(CN1CCC(c2ccc(Oc3ccccc3)cc2)CC1)c1ccc(F)cc1 [Compound 67, 1-[2-(4-fluorophenyl)-2-oxo]ethyl-4-(4-phenoxyphenyl)piperidine]
- Antiveratridine action (inhibiting rate %) (Na+ channel): 15%
- inhibition in vivo at 10 mg/kg (DBA/2N mice): 37%

Compound: O=C(CN1CCC(c2ccc(Oc3ccccc3)cc2)CC1)c1ccc(Cl)cc1 [Compound 68, 1-[2-(4-chlorophenyl)-2-oxo]ethyl-4-(4-phenoxyphenyl]piperidine]
- Antiveratridine action (inhibiting rate %) (Na+ channel): 38.9%

Compound: CC(C(=O)c1ccccc1)N1CCC(c2ccc(Oc3ccccc3)cc2)CC1 (stereo not shown) [Compound 69, 1-(1-benzoylethyl)-4-(4-phenoxyphenyl)piperidine]
- Antiveratridine action (inhibiting rate %) (Na+ channel): 11.2%
- inhibition in vivo at 10 mg/kg (DBA/2N mice): 64.7%

Compound: COc1ccc(Cc2ccc(C3CCN(CC(=O)c4ccccc4)CC3)cc2)cc1 [Compound 70, 4-[4-(4-methoxyphenyl)methylphenyl]-1-(2-phenyl-2-oxo)ethylpiperidine]
- inhibition in vivo at 10 mg/kg (DBA/2N mice): 73.9%

Compound: O=C1c2ccccc2CC1N1CCC(c2ccc(Oc3ccccc3)cc2)CC1 (stereo not shown) [Compound 71, 1-(1-oxoindan-2-yl)-4-(4-phenoxy)phenylpiperidine]
- inhibition in vivo at 10 mg/kg (DBA/2N mice): 32%
